In patent US9493506B2 (Enanta Pharmaceuticals, Inc., priority 2010, dated 2016):
pEC50: −log10 of the molar value.

Assays:
Assay type in all cases: cell-based, hepatitis C virus (genotype 1a-H77)
[1] = system: HCV replicon with a R155K mutation in a 1a-H77 background; assay: transient replicon assay, R155K mutation in 1a-H77 background; conditions: Hepatitis C virus, read-out: EC50 in a transient replicon assay with a R155K mutation in a 1a-H77 background
Method: (§1) Replicon cell lines can be maintained in Dulbecco's modified Eagles medium (DMEM) containing 100 IU/ml penicillin, […] streptomycin (Invitrogen), […] G418 (Invitrogen) and 10% (v/v) fetal bovine serum (FBS). Replicon-containing cells can be seeded into 96 well plates at a density of 5000 cells per well in 100 μl DMEM containing 5% FBS. The next day, the compound can be initially diluted in dimethyl sulfoxide (DMSO) to generate a 200× stock of the inhibitor in a series of 8 half-log dilutions. The dilution series can then be diluted 100-fold in the medium containing 5% FBS. One hundred microliters of medium with the inhibitor can be added to each well of the overnight cell culture plate already containing 100 μl of DMEM with 5% FBS. In assays where the protein binding effect on inhibitor potency is assessed, the medium from the overnight cell culture plates can be replaced with 200 μl DMEM containing 40% human plasma (Innovative Research) plus 5% FBS as well as compound. The cells can be grown for 4 days in tissue culture incubators. The inhibitory effects of compounds against the replicons can be determined by measuring either the level of luciferase or HCV RNA. The luciferase assay can be conducted using a Luciferase Assay System kit (Promega) following the manufacturer's instructions. Briefly, the cell culture medium is removed and wells are washed with 200 μl of phosphate-buffered saline. To each well Passive Lysis buffer (Promega, Wis.) is added and the plates are incubated for 30 min with rocking to lyse the cells. Luciferin solution (50 μl, Promega) is added, and luciferase activity is measured with a Victor II luminometer (Perkin-Elmer). To determine HCV RNA levels, RNA extractions can be performed using the CellsDirect kit (Invitrogen), and the HCV RNA copy number can be measured using the SuperScript III Platinum One-Step qRT-PCR system (Invitrogen) and primers specific to the HCV 5′ nontranslated region. Cytotoxicity can be determined by the 3-[4,5-dimethylhiazol-2-yl]-2,5-diphenyltetrazolium bromide (MTT) colorimetric assay as follows. Replicon cells is plated in 96-well plates (4000 cells per well), the next day compound dilutions are added as in the activity assay, and the cells are grown in the presence of the inhibitors for 4 days. The MTT solution is diluted in DMEM containing 5% FBS and 60 μl of the solution is added to the cells. After 4 hrs, the cells are solubilized by the addition of 30 […]μl SDS (20% in 0.02 N HCl). The plates are incubated overnight and the optical density can be measured at 570 nm. To determine compounds' EC50 and TD50, luciferase, RNA inhibition and MTT data can be analyzed using the GraphPad Prism 4 software (equation: sigmoidal dose-response—variable slope).
(§2) The 1a-H77 replicon for transient assays further differs from the replicon in the stable cell line in that it contains NS2 through NS5B in the second cistron. The 1b-N strain replicon contains NS3 through NS5B in the second cistron, with adaptive mutations E1202G in NS3 and S2204I in NS5A. Mutagenesis can be performed using the Stratagene QuikChange XL II site-directed mutagenesis kit. Mutants' sequences can be confirmed, plasmids can be linearized with Xba I restriction enzyme and used as template for in vitro transcription reactions to make mutant replicon RNA for transient transfections. In vitro transcription can be performed with the T7 Megascript kit (Ambion).
(§3) Transient replicon transfections can be performed essentially as described by Mo et al. (Antimicrob Agents Chemother (2005) 49(10):4305-4314) with slight modifications. Fifteen micrograms of template RNA can be used to electroporate 3×10^6 cells in a 200 μl volume in a 0.2 cm cuvette. The cells used for transient transfections can be Huh7 cells obtained by curing replicon-containing cells with IFN (Mo et al., supra). Electroporation can be done with a Gene Pulser II (Bio-Rad, CA) at 480V and 25 μF, using two manual pulses. […]

[2] = system: HCV replicon with a D168E mutation in a 1a-H77 background; assay: transient replicon assay, D168E mutation in 1a-H77 background; conditions: Hepatitis C virus, read-out: EC50 in a transient replicon assay with a D168E mutation in a 1a-H77 background
Method: as §1, §2, §3

[3] = system: HCV replicon with a D168V mutation in a 1a-H77 background; assay: transient replicon assay, D168V mutation in 1a-H77 background; conditions: Hepatitis C virus, read-out: EC50 in a transient replicon assay with a D168V mutation in a 1a-H77 background
Method: as §1, §2, §3

For `CC(C)(C)OC(=O)N[C@H]1CCCCC/C=C\[C@@H]2C[C@@]2(C(=O)NS(=O)(=O)C2(C)CC2)NC(=O)[C@@H]2C[C@@H](Oc3nc4cc(F)ccc4nc3C(C)(F)F)CN2C1=O` [Example 118, tert-butyl (2R,6S,13aS,14aR,16aS,Z)-2-(3-(1,1-difluoroethyl)-7-fluoroquinoxalin-2-yloxy)-14a-(1-methylcyclopropylsulfonylcarbamoyl)-5,16-dioxo-1,2,3,5,6,7,8,9,10,11,13a,14,14a,15,16,16a-hexadecahydrocyclopropa[e]pyrrolo[1,2-a][1,4]diazacyclopentadecin-6-ylcarbamate], the pEC50 [1] was 8.00 to 9.00, the pEC50 [2] was under 7.00 and the pEC50 [3] was 6.00 to 6.60.
`CCc1nc2cccc(F)c2nc1O[C@@H]1C[C@H]2C(=O)N[C@]3(C(=O)NS(=O)(=O)C4CC4)C[C@H]3/C=C\CCCCC[C@H](NC(=O)c3ccon3)C(=O)N2C1` [Example 161, N-((2R,6S,13aS,14aR,16aS,Z)-14a-(cyclopropylsulfonylcarbamoyl)-2-(3-ethyl-8-fluoroquinoxalin-2-yloxy)-5,16-dioxo-1,2,3,5,6,7,8,9,10,11,13a,14,14a,15,16,16a-hexadecahydrocyclopropa[e]pyrrolo[1,2-a][1,4]diazacyclopentadecin-6-yl)isoxazole-3-carboxamide] gave a pEC50 [1] of 8.00 to 9.00, a pEC50 [2] of 7.70 to 8.52 and a pEC50 [3] of 6.60 to 7.30.
`CC(C)(C)OC(=O)N[C@H]1CCCCC/C=C\[C@@H]2C[C@@]2(C(=O)NS(=O)(=O)C2CC2)NC(=O)[C@@H]2C[C@@H](Oc3nc4cc(F)ccc4nc3C(C)(F)F)CN2C1=O` [Example 116, tert-butyl (2R,6S,13aS,14aR,16aS,Z)-14a-(cyclopropylsulfonylcarbamoyl)-2-(3-(1,1-difluoroethyl)-7-fluoroquinoxalin-2-yloxy)-5,16-dioxo-1,2,3,5,6,7,8,9,10,11,13a,14,14a,15,16,16a-hexadecahydrocyclopropa[e]pyrrolo[1,2-a][1,4]diazacyclopentadecin-6-ylcarbamate] showed a pEC50 [1] of over 9.00, a pEC50 [2] of 7.70 to 8.52 and a pEC50 [3] of 7.30 to 7.60.
`Cc1cc(C(=O)N[C@H]2CCCCC/C=C\[C@@H]3C[C@@]3(C(=O)NS(=O)(=O)C3CC3)NC(=O)[C@@H]3C[C@@H](Oc4nc5c(F)cccc5nc4C(F)(F)F)CN3C2=O)no1` [Example 113, N-((2R,6S,13aS,14aR,16aS,Z)-14a-(cyclopropylsulfonylcarbamoyl)-2-(8-fluoro-3-(trifluoromethyl)quinoxalin-2-yloxy)-5,16-dioxo-1,2,3,5,6,7,8,9,10,11,13a,14,14a,15,16,16a-hexadecahydrocyclopropa[e]pyrrolo[1,2-a][1,4]diazacyclopentadecin-6-yl)-5-methylisoxazole-3-carboxamide] showed a pEC50 [1] of over 9.00, a pEC50 [2] of over 8.52 and a pEC50 [3] of over 7.60.
In the case of `Cc1cc(C(=O)N[C@H]2CCCCC/C=C\[C@@H]3C[C@@]3(C(=O)NS(=O)(=O)C3(C)CC3)NC(=O)[C@@H]3C[C@@H](Oc4nc5ccccc5nc4C(F)(F)F)CN3C2=O)no1` [Example 17, 5-methyl-N-((2R,6S,13aS,14aR,16aS,Z)-14a-(1-methylcyclopropylsulfonylcarbamoyl)-5,16-dioxo-2-(3-(trifluoromethyl)quinoxalin-2-yloxy)-1,2,3,5,6,7,8,9,10,11,13a,14,14a,15,16,16a-hexadecahydrocyclopropa[e]pyrrolo[1,2-a][1,4]diazacyclopentadecin-6-yl)isoxazole-3-carboxamide], the pEC50 [1] was over 9.00, the pEC50 [2] was 7.70 to 8.52 and the pEC50 [3] was 7.30 to 7.60.
`CCc1nc2cccc(F)c2nc1O[C@@H]1C[C@H]2C(=O)N[C@]3(C(=O)NS(=O)(=O)C4CC4)C[C@H]3/C=C\CCCCC[C@H](NC(=O)c3noc(C)c3C)C(=O)N2C1` [Example 163, N-((2R,6S,13aS,14aR,16aS,Z)-14a-(cyclopropylsulfonylcarbamoyl)-2-(3-ethyl-8-fluoroquinoxalin-2-yloxy)-5,16-dioxo-1,2,3,5,6,7,8,9,10,11,13a,14,14a,15,16,16a-hexadecahydrocyclopropa[e]pyrrolo[1,2-a][1,4]diazacyclopentadecin-6-yl)-4,5-dimethylisoxazole isoxazole-3-carboxamide] showed a pEC50 [1] of over 9.00, a pEC50 [2] of over 8.52 and a pEC50 [3] of 7.30 to 7.60.
`CCc1nc2cccc(F)c2nc1O[C@@H]1C[C@H]2C(=O)N[C@]3(C(=O)NS(=O)(=O)C4CC4)C[C@H]3/C=C\CCCCC[C@H](NC(=O)OC(C)(C)C)C(=O)N2C1` [Example 160, tert-butyl (2R,6S,13aS,14aR,16aS,Z)-14a-(cyclopropylsulfonylcarbamoyl)-2-(3-ethyl-8-fluoroquinoxalin-2-yloxy)-5,16-dioxo-1,2,3,5,6,7,8,9,10,11,13a,14,14a,15,16,16a-hexadecahydrocyclopropa[e]pyrrolo[1,2-a][1,4]diazacyclopentadecin-6-ylcarbamate] showed a pEC50 [1] of 8.00 to 9.00, a pEC50 [2] of 7.30 to 7.70 and a pEC50 [3] of 6.60 to 7.30.
With `CC(C)(C)OC(=O)N[C@H]1CCCCC/C=C\[C@@H]2C[C@@]2(C(=O)NS(=O)(=O)C2(C)CC2)NC(=O)[C@@H]2C[C@@H](Oc3nc4c(F)cccc4nc3C(F)(F)F)CN2C1=O` [Example 114, tert-butyl (2R,6S,13aS,14aR,16aS,Z)-2-(8-fluoro-3-(trifluoromethyl)quinoxalin-2-yloxy)-14a-(1-methylcyclopropylsulfonylcarbamoyl)-5,16-dioxo-1,2,3,5,6,7,8,9,10,11,13a,14,14a,15,16,16a-hexadecahydrocyclopropa[e]pyrrolo[1,2-a][1,4]diazacyclopentadecin-6-ylcarbamate] the pEC50 [1] was over 9.00, the pEC50 [2] was 7.70 to 8.52 and the pEC50 [3] was 6.60 to 7.30.
`CC(C)(C)OC(=O)N[C@H]1CCCCC/C=C\[C@@H]2C[C@@]2(C(=O)NS(=O)(=O)C2CC2)NC(=O)[C@@H]2C[C@@H](Oc3nc4c(F)cccc4nc3C(F)(F)F)CN2C1=O` [Example 112, tert-butyl (2R,6S,13aS,14aR,16aS,Z)-14a-(cyclopropylsulfonylcarbamoyl)-2-(8-fluoro-3-(trifluoromethyl)quinoxalin-2-yloxy)-5,16-dioxo-1,2,3,5,6,7,8,9,10,11,13a,14,14a,15,16,16a-hexadecahydrocyclopropa[e]pyrrolo[1,2-a][1,4]diazacyclopentadecin-6-ylcarbamate] showed a pEC50 [1] of over 9.00, a pEC50 [2] of 7.70 to 8.52 and a pEC50 [3] of 7.30 to 7.60.
Work on `CCc1nc2ccc(F)cc2nc1O[C@@H]1C[C@H]2C(=O)N[C@]3(C(=O)NS(=O)(=O)C4CC4)C[C@H]3/C=C\CCCCC[C@H](NC(=O)c3ccon3)C(=O)N2C1` [Example 122, N-((2R,6S,13aS,14aR,16aS,Z)-14a-(cyclopropylsulfonylcarbamoyl)-2-(3-ethyl-7-fluoroquinoxalin-2-yloxy)-5,16-dioxo-1,2,3,5,6,7,8,9,10,11,13a,14,14a,15,16,16a-hexadecahydrocyclopropa[e]pyrrolo[1,2-a][1,4]diazacyclopentadecin-6-yl)isoxazole-3-carboxamide] yielded a pEC50 [1] of 8.00 to 9.00, a pEC50 [2] of 7.30 to 7.70 and a pEC50 [3] of 6.00 to 6.60.
